Test results: patent US6906205B2, “Spiro and dispiro 1,2,4-trioxolane antimalarials” (Medicines for Malaria Venture MMV, priority 2002, dated 2005)
Converted amounts (≈) assume the structure as drawn.

Tests used:
[1] = system: P. falciparum NF54 strain (sensitive to standard antimalarials); assay: semiautomated microdilution assay, [3H]-hypoxanthine incorporation, NF54 strain; assay type: cell-based, Plasmodium falciparum; conditions: NF54 strain, 72 h incubation
Procedure, shortened: (§1)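 Logit regression analysis was used to estimate IC50 values. Parasites were intraerythrocytic forms from asynchronous stock cultures, and compounds were tested by semiautomated microdilution.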

[2] = system: P. falciparum K1 strain (Thailand resistant to chloroquine); assay: semiautomated microdilution assay, [3H]-hypoxanthine incorporation, K1 strain; assay type: cell-based, Plasmodium falciparum; conditions: K1 strain, 72 h incubation
Procedure, shortened: as §1

[3] = system: ANKA strain of P. berghei; assay: single dose STI in vivo screen in infected mice; set-up: species or system Plasmodium berghei; conditions: for Activity (%) po / Activity (%) sc / Activity (%) SSVpo / Activity (%) 10 mg/kg SSV po / Activity (%) 3 mg/kg SSV po: percent reduction in parasitemia day 3 post-infection; for Activity (%) po / Survival (days) po: single 10 mg/kg po in 3% ethanol and 7% Tween 80; for Activity (%) po / Activity (%) sc / Activity (%) SSVpo: mice; for Activity (%) sc / Survival (days) sc: single 10 mg/kg sc in 3% ethanol and 7% Tween 80; for Activity (%) SSVpo: single po dose in standard suspending vehicle (SSV); for Survival (days) po / Survival (days) sc / Survival (days) SSVpo: untreated control 5.6 ± 0.3; for Survival (days) SSVpo: single po dose in SSV; for Activity (%) 10 mg/kg SSV po / Survival (days) 10 mg/kg SSV po: single 10 mg/kg po in SSV
Procedure, shortened: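 Groups of 3-5 Moro SPF or NMRI mice infected with the ANKA strain of P. berghei received a single dose of trioxolane on day one post-infection. The compound was given in 3% ethanol and 7% Tween 80 or in SSV (0.5% w/v CMC, 0.5% v/v benzyl alcohol, 0.4% v/v Tween 80, 0.9% w/v sodium chloride in water). Antimalarial activity was scored as percent reduction in parasitemia on day three and as survival time versus untreated controls. Survival to day 30 counted as cure.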

Compound | IC50 (ng/ml) NF54 [1] [ng/mL] | IC50 (ng/ml) K1 [2] [ng/mL] | Activity (%) po [3] [%] | Activity (%) sc [3] [%] | Activity (%) SSVpo [3] [%] | Survival (days) po [3] [days] | Survival (days) sc [3] [days] | Survival (days) SSVpo [3] [days] | Activity (%) 10 mg/kg SSV po [3] | Survival (days) 10 mg/kg SSV po [3] | Activity (%) 3 mg/kg SSV po ([3]; single 3 mg/kg po in SSV) [%] | Survival (days) 3 mg/kg SSV po ([3]; single 3 mg/kg po in SSV) [days]
Clc1ccc2c(NCCNC3CCC4(CC3)OOC3(O4)C4CC5CC(C4)CC3C5)ccnc2c1 (stereo not shown) [OZ258] | 5.2 (≈ 10.7 nM) | 5.8 (≈ 12 nM) | 75 | 99.95 | 70 | 6.0 | 10.7 | 6.0 | – | – | – | –
CCOC(=O)CCC[C@H]1CC[C@]2(CC1)OOC1(O2)C2CC3CC(C2)CC1C3 (stereo partly shown) [OZ260] | 4.3 (≈ 11.4 nM) | 5.6 (≈ 14.8 nM) | 72 | 81 | 51 | 6.7 | 7.7 | 7.0 | – | – | – | –
O=C(O)CCC[C@H]1CC[C@]2(CC1)OOC1(O2)C2CC3CC(C2)CC1C3 (stereo partly shown) [OZ261] | 18 (≈ 51.4 nM) | 39 (≈ 111 nM) | 61 | 92 | 47 | 7.0 | 8.0 | 7.0 | – | – | – | –
CC(=O)NC[C@H]1CC[C@]2(CC1)OOC1(O2)C2CC3CC(C2)CC1C3 (stereo partly shown) [OZ262] | 0.84 (≈ 2.5 nM) | 0.63 (≈ 1.88 nM) | 96 | 99.39 | 98 | 11.7 | 10.0 | 12.3 | – | – | – | –
O=C(NC[C@H]1CC[C@]2(CC1)OOC1(O2)C2CC3CC(C2)CC1C3)c1c[nH]cn1 (stereo partly shown) [OZ263] | 1.1 (≈ 2.84 nM) | 0.84 (≈ 2.17 nM) | 99.53 | 99.92 | 99.45 | 13.0 | 11.0 | 13.3 | – | – | – | –
O=C(NC[C@H]1CC[C@]2(CC1)OOC1(O2)C2CC3CC(C2)CC1C3)c1cc[n+]([O-])cc1 (stereo partly shown) [OZ264] | 1.5 (≈ 3.62 nM) | 1.2 (≈ 2.9 nM) | 99.61 | 99.97 | 99.92 | 11.0 | 13.7 | 10.3 | – | – | – | –
NC(=O)NC[C@H]1CC[C@]2(CC1)OOC1(O2)C2CC3CC(C2)CC1C3 (stereo partly shown) [OZ265] | 1.6 (≈ 4.76 nM) | 0.56 (≈ 1.66 nM) | 99 | 99.67 | 98 | 13.0 | 11.7 | 9.7 | – | – | – | –
CN(C)C(=O)NC[C@H]1CC[C@]2(CC1)OOC1(O2)C2CC3CC(C2)CC1C3 (stereo partly shown) [OZ266] | 1.5 (≈ 4.12 nM) | 1.1 (≈ 3.02 nM) | 99 | 99.75 | 99.39 | 13.7 | 11.7 | 11.7 | – | – | – | –
CN1CCN(C(=O)NC[C@H]2CC[C@]3(CC2)OOC2(O3)C3CC4CC(C3)CC2C4)CC1 (stereo partly shown) [OZ267] | 0.34 (≈ 0.81 nM) | 0.20 (≈ 0.477 nM) | 99.92 | 99.97 | 99.89 | 8.3 | 9.3 | 8.7 | – | – | – | –
NC(=O)C(=O)NC[C@H]1CC[C@]2(CC1)OOC1(O2)C2CC3CC(C2)CC1C3 (stereo partly shown) [OZ268] | 0.71 (≈ 1.95 nM) | 0.44 (≈ 1.21 nM) | 99.86 | 99.92 | 99.47 | 9.3 | 9.7 | 13.3 | – | – | – | –
NC[C@H]1CC[C@@]2(CC1)OOC1(O2)C2CC3CC(C2)CC1C3 (stereo partly shown) [OZ269] | 0.61 (≈ 2.08 nM) | 0.32 (≈ 1.09 nM) | 98 | 99.92 | 86 | 10.7 | 9.0 | 11.3 | – | – | – | –
O=C(NC[C@H]1CC[C@]2(CC1)OOC1(O2)C2CC3CC(C2)CC1C3)c1cccc[n+]1[O-] (stereo partly shown) [OZ270] | 1.3 (≈ 3.14 nM) | 0.85 (≈ 2.05 nM) | 99.17 | 99.81 | 99.47 | 13.7 | 11.3 | 12.3 | – | – | – | –
FC1(c2ccccc2)CCC2(CC1)OOC1(O2)C2CC3CC(C2)CC1C3 (stereo not shown) [OZ274] | 5.7 (≈ 15.9 nM) | 5.1 (≈ 14.2 nM) | – | – | – | – | – | – | 11/ND % | 7.0/ND days | – | –
OC1(Cc2ccccn2)CCC2(CC1)OOC1(O2)C2CC3CC(C2)CC1C3 (stereo not shown) [OZ275] | 0.74 (≈ 1.99 nM) | 0.66 (≈ 1.78 nM) | – | – | – | – | – | – | 68/ND % | 7.3/ND days | – | –
O=C(C[C@H]1CC[C@]2(CC1)OO[C@]1(O2)C2CC3CC(C2)CC1C3)Nc1nnn[nH]1 [OZ278] | 39 (≈ 100 nM) | 23 (≈ 59.1 nM) | – | – | – | – | – | – | 56/ND % | 7.3/ND days | – | –
CC(C)(N)CNC[C@H]1CC[C@]2(CC1)OOC1(O2)C2CC3CC(C2)CC1C3 (stereo partly shown) [OZ287] | 0.83 (≈ 2.28 nM) | 0.49 (≈ 1.34 nM) | – | – | – | – | – | – | 95% | 8.3 days | 68 | –
c1ccc(CNC[C@H]2CC[C@]3(CC2)OO[C@]2(O3)C3CC4CC(C3)CC2C4)nc1 [OZ292] | 0.26 (≈ 0.676 nM) | 0.19 (≈ 0.494 nM) | – | – | – | – | – | – | 74% | 7.0 days | 46 | –
O=CN1CCN(C(=O)C[C@H]2CC[C@]3(CC2)OO[C@]2(O3)C3CC4CC(C3)CC2C4)CC1 [OZ294] | 0.63 (≈ 1.51 nM) | 0.39 (≈ 0.932 nM) | – | – | – | – | – | – | – | 8.6 days | 70 | –
O=C(C[C@H]1CC[C@]2(CC1)OO[C@]1(O2)C2CC3CC(C2)CC1C3)NCc1ccccn1 [OZ295] | 0.75 (≈ 1.82 nM) | 0.44 (≈ 1.07 nM) | – | – | – | – | – | – | 47% | 7.0 days | 35 | –
O=C(C[C@H]1CC[C@]2(CC1)OO[C@]1(O2)C2CC3CC(C2)CC1C3)N1CCC(O)CC1 [OZ297] | 0.76 (≈ 1.87 nM) | 0.49 (≈ 1.21 nM) | – | – | – | – | – | – | – | 9.8 days | 83 | –
O=S(=O)(C[C@H]1CC[C@]2(CC1)OO[C@]1(O2)C2CC3CC(C2)CC1C3)c1ncccn1 [OZ299] | 6.3 (≈ 15 nM) | 6.8 (≈ 16.2 nM) | – | – | – | – | – | – | 36% | 6.6 days | 0 | –
O=C(O)CCC(=O)NC[C@H]1CC[C@]2(CC1)OO[C@]1(O2)C2CC3CC(C2)CC1C3 [OZ300] | 97 (≈ 247 nM) | 71 (≈ 180 nM) | – | – | – | – | – | – | 6% | 6.8 days | 0 | –
NC(=O)CNC(=O)C[C@H]1CC[C@]2(CC1)OO[C@]1(O2)C2CC3CC(C2)CC1C3 [OZ306] | 3.6 (≈ 9.51 nM) | 3.9 (≈ 10.3 nM) | – | – | – | – | – | – | 99.58% | 9.2 days | 87 | –
CS(=O)(=O)C[C@H]1CC[C@]2(CC1)OO[C@]1(O2)C2CC3CC(C2)CC1C3 [OZ307] | 0.88 (≈ 2.47 nM) | 0.62 (≈ 1.74 nM) | – | – | – | – | – | – | 98% | 9.4 days | 74 | –
O=C(C[C@H]1CC[C@]2(CC1)OO[C@]1(O2)C2CC3CC(C2)CC1C3)NCCN1CCOCC1 [OZ313] | 0.76 (≈ 1.75 nM) | 0.55 (≈ 1.27 nM) | – | – | – | – | – | – | 98.9% | – | 58 | –
NC1(C(=O)NC[C@H]2CC[C@]3(CC2)OO[C@]2(O3)C3CC4CC(C3)CC2C4)CCCC1 [OZ317] | 0.36 (≈ 0.89 nM) | 0.33 (≈ 0.816 nM) | – | – | – | – | – | – | 99.92% | 9.8 days | 99.20 | –
NC(=O)CCNC[C@H]1CC[C@]2(CC1)OO[C@]1(O2)C2CC3CC(C2)CC1C3 [OZ319] | 0.91 (≈ 2.5 nM) | 0.41 (≈ 1.12 nM) | – | – | – | – | – | – | 99.92% | 10.6 days | 99.14 | 10.8
